Patent US10294202B2, “Pyrrolidinones as herbicides” (FMC Corporation, priority 2013, dated 2019)

Key:
pigweed, palmer = assay: Test E preemergence herbicide test; format: in vivo, Amaranthus palmeri; set-up: key: 0 = no effect, 100 = complete control
Source text: (§1) Seeds of plant species selected from corn (Zea mays), soybean (Glycine max), velvetleaf (Abutilon theophrasti), lambsquarters (Chenopodium album), wild poinsettia (Euphorbia heterophylla), pigweed, palmer (palmer pigweed, Amaranthus palmeri), waterhemp (common waterhemp, Amaranthus rudis), surinam grass (Brachiaria decumbens), crabgrass, large (large crabgrass, Digitaria sanguinalis), crabgrass, Brazil (Brazilian crabgrass, Digitaria horizontalis), panicum, fall (fall panicum, Panicum dichotomiflorum), foxtail, giant (giant foxtail, Setaria faberii), foxtail, green (green foxtail, Setaria viridis), goosegrass (Eleusine indica), johnsongrass (Sorghum halepense), ragweed (common ragweed, Ambrosia elatior), barnyardgrass (Echinochloa crus-galli), sandbur (southern sandbur, Cenchrus echinatus), arrowleaf […] rhombifolia), ryegrass, Italian (Italian ryegrass, Lolium multiflorum), dayflower, VA (Virginia dayflower, Commelina virginica), field bindweed (Convolvulus arvensis), morningglory (Ipomoea coccinea), nightshade (eastern black nightshade, Solanum ptycanthum), kochia (Kochia scoparia), nutsedge, yellow (yellow nutsedge, Cyperus esculentus), cocklebur (common cocklebur, Xanthium strumarium), smartweed (ladysthumb smartweed, Polygonum Persicaria) and beggarticks (hairy beggarticks, Bidens pilosa), were planted into a silt loam soil and treated preemergence with test chemicals formulated in a non-phytotoxic solvent mixture which included a surfactant. Treated plants and controls were maintained in a greenhouse for 21 days, after which time all species were compared to controls and visually evaluated. Plant response ratings, summarized in Table E, are based on a scale of 0 to 100 where 0 is no effect and 100 is complete control. A dash (-) response means no test result.

waterhemp = assay: Test E preemergence herbicide test; format: in vivo, Amaranthus rudis; set-up: key: 0 = no effect, 100 = complete control
Source text: as §1

crabgrass, large = assay: Test E preemergence herbicide test; format: in vivo, Digitaria sanguinalis; set-up: key: 0 = no effect, 100 = complete control
Source text: as §1

foxtail, green = assay: Test E preemergence herbicide test; format: in vivo, Setaria viridis; set-up: key: 0 = no effect, 100 = complete control
Source text: as §1

bluegrass = assay: Test D pre-/postemergence herbicide test; format: in vivo, Poa annua; conditions: for Plant response rating: Bluegrass, scale 0 to 100; for Plant response rating, Bluegrass: scale 0 to 100 (0 no effect, 100 complete control)
Source text: (§2) Seeds of plant species selected from bluegrass (annual bluegrass, Poa annua), blackgrass (Alopecurus myosuroides), canarygrass (littleseed canarygrass, Phalaris minor), chickweed (common chickweed, Stellaria media), galium (catchweed bedstraw, Galium aparine), bromegrass, downy (downy bromegrass, Bromus tectorum), field poppy (Papaver rhoeas), field violet (Viola arvensis), foxtail, green (green foxtail, Setaria viridis), deadnettle (henbit deadnettle, Lamium amplexicaule), ryegrass, Italian (Italian ryegrass, Lolium multiflorum), kochia (Kochia scoparia), lambsquarters (Chenopodium album), oilseed rape (Brassica napus), pigweed (Amaranthus retroflexus), chamomile (scentless chamomile, Matricaria inodora), Russian thistle (Salsola kali), speedwell (bird's-eye speedwell, Veronica persica), barley, spring (spring barley, Hordeum vulgare), wheat, spring (spring wheat, Triticum aestivum), buckwheat, wild (wild buckwheat, Polygonum convolvulus), mustard, wild (wild mustard, Sinapis arvensis), oat, wild (wild oat, Avena fatua), radish, wild (wild radish, Raphanus raphanistrum), […]), barley, winter (winter barley, Hordeum vulgare), and wheat, winter (winter wheat, Triticum aestivum) were planted into a silt loam soil and treated preemergence with test chemicals formulated in a non-phytotoxic solvent mixture which included a surfactant. At the same time, these species were planted in pots containing Redi-Earth® planting medium (Scotts Company, 14111 Scottslawn Road, Marysville, Ohio 43041) comprising spaghnum peat moss, vermiculite, wetting agent and starter nutrients and treated with postemergence applications of the test chemicals formulated in the same manner. Plants ranged in height from 2 to 18 cm (1- to 4-leaf stage). Treated plants and controls were maintained in a controlled growth environment for 7 to 21 days after which time all species were compared to controls and visually evaluated. Plant response ratings, summarized in Table D, are based on a scale of 0 to 100 where 0 is no effect and 100 is complete control. A dash (-) response means no test result.

blackgrass = assay: Test D pre-/postemergence herbicide test; format: in vivo, Alopecurus myosuroides; conditions: for Plant response rating: Blackgrass, scale 0 to 100; for Plant response rating, Blackgrass: scale 0 to 100 (0 no effect, 100 complete control)
Source text: as §2

bromegrass, downy = assay: Test D pre-/postemergence herbicide test; format: in vivo, Bromus tectorum; conditions: for Plant response rating: Bromegrass, Downy, scale 0 to 100; for Plant response rating, Bromegrass, Downy: scale 0 to 100 (0 no effect, 100 complete control)
In short: (§3)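 Plants were sown in silt loam for preemergence spraying or in a peat moss/vermiculite mix for postemergence spraying at 2 to 18 cm height. Formulations used a non-phytotoxic solvent mixture with a surfactant. After 7 to 21 days, responses were scored visually from 0 (no effect) to 100 (complete control).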

lambsquarters = assay: Test D pre-/postemergence herbicide test; format: in vivo, Chenopodium album; conditions: for Plant response rating: Lambsquarters, scale 0 to 100; for Plant response rating, Lambsquarters: scale 0 to 100 (0 no effect, 100 complete control)
Source text: as §2

speedwell = assay: Test D pre-/postemergence herbicide test; format: in vivo, Veronica persica; conditions: for Plant response rating: Postemergence, Speedwell, scale 0 to 100; for Plant response rating, Speedwell: Preemergence, scale 0 to 100 (0 no effect, 100 complete control)
In short: as §3

O=C1NCC(c2ccc(OC(F)F)cc2)C1C(=O)Nc1cccc(F)c1F (racemic) [Compound 350]
Plant response rating, Pigweed, Palmer (pigweed, palmer; 31 g ai/ha): 0
Plant response rating, Pigweed, Palmer (pigweed, palmer; 62 g ai/ha): 0
Plant response rating, Pigweed, Palmer (pigweed, palmer; 125 g ai/ha): 35
Plant response rating, Pigweed, Palmer (pigweed, palmer; 250 g ai/ha): 35
Plant response rating, Waterhemp (waterhemp; 31 g ai/ha): 0
Plant response rating, Waterhemp (waterhemp; 62 g ai/ha): 0
Plant response rating, Waterhemp (waterhemp; 125 g ai/ha): 0
Plant response rating, Waterhemp (waterhemp; 250 g ai/ha): 35
Plant response rating, Crabgrass, Large (crabgrass, large; 31 g ai/ha): 50
Plant response rating, Crabgrass, Large (crabgrass, large; 62 g ai/ha): 70
Plant response rating, Crabgrass, Large (crabgrass, large; 125 g ai/ha): 98
Plant response rating, Crabgrass, Large (crabgrass, large; 250 g ai/ha): 98
Plant response rating, Foxtail, Green (foxtail, green; 31 g ai/ha): 20
Plant response rating, Foxtail, Green (foxtail, green; 62 g ai/ha): 35
Plant response rating, Foxtail, Green (foxtail, green; 125 g ai/ha): 80
Plant response rating, Foxtail, Green (foxtail, green; 250 g ai/ha): 85

O=C1NCC(c2ccc(C(F)(F)F)cc2)C1C(=O)Nc1ccccc1F (centres unmarked) [Compound 231]
Plant response rating (bluegrass; Postemergence, 31 g ai/ha): 5
Plant response rating (bluegrass; Postemergence, 62 g ai/ha): 10
Plant response rating (bluegrass; Postemergence, 125 g ai/ha): 10
Plant response rating (bluegrass; Postemergence, 250 g ai/ha): 10
Plant response rating, Bluegrass (bluegrass; Preemergence, 62 g ai/ha): 0
Plant response rating, Bluegrass (bluegrass; Preemergence, 125 g ai/ha): 15
Plant response rating, Bluegrass (bluegrass; Preemergence, 31 g ai/ha): 5
Plant response rating (bluegrass; Preemergence, 250 g ai/ha): 25
Plant response rating (blackgrass; Postemergence, 31 g ai/ha): 0
Plant response rating (blackgrass; Postemergence, 62 g ai/ha): 10
Plant response rating (blackgrass; Postemergence, 125 g ai/ha): 10
Plant response rating (blackgrass; Postemergence, 250 g ai/ha): 20
Plant response rating, Blackgrass (blackgrass; Preemergence, 62 g ai/ha): 0
Plant response rating, Blackgrass (blackgrass; Preemergence, 125 g ai/ha): 15
Plant response rating, Blackgrass (blackgrass; Preemergence, 31 g ai/ha): 0
Plant response rating (blackgrass; Preemergence, 250 g ai/ha): 55
Plant response rating (bromegrass, downy; Postemergence, 31 g ai/ha): 15
Plant response rating (bromegrass, downy; Postemergence, 62 g ai/ha): 20
Plant response rating (bromegrass, downy; Postemergence, 125 g ai/ha): 25
Plant response rating (bromegrass, downy; Postemergence, 250 g ai/ha): 25
Plant response rating, Bromegrass, Downy (bromegrass, downy; Preemergence, 62 g ai/ha): 0
Plant response rating, Bromegrass, Downy (bromegrass, downy; Preemergence, 125 g ai/ha): 0
Plant response rating, Bromegrass, Downy (bromegrass, downy; Preemergence, 31 g ai/ha): 0
Plant response rating (bromegrass, downy; Preemergence, 250 g ai/ha): 15
Plant response rating (lambsquarters; Postemergence, 31 g ai/ha): 55
Plant response rating (lambsquarters; Postemergence, 62 g ai/ha): 50
Plant response rating (lambsquarters; Postemergence, 125 g ai/ha): 70
Plant response rating (lambsquarters; Postemergence, 250 g ai/ha): 75
Plant response rating, Lambsquarters (lambsquarters; Preemergence, 62 g ai/ha): 80
Plant response rating, Lambsquarters (lambsquarters; Preemergence, 125 g ai/ha): 90
Plant response rating, Lambsquarters (lambsquarters; Preemergence, 31 g ai/ha): 45
Plant response rating (lambsquarters; Preemergence, 250 g ai/ha): 90
Plant response rating (speedwell; 31 g ai/ha): 60
Plant response rating (speedwell; 62 g ai/ha): 70
Plant response rating (speedwell; 125 g ai/ha): 75
Plant response rating (speedwell; 250 g ai/ha): 75
Plant response rating, Speedwell (speedwell; 62 g ai/ha): 80
Plant response rating, Speedwell (speedwell; 125 g ai/ha): 100
Plant response rating, Speedwell (speedwell; 31 g ai/ha): 75
Plant response rating, Speedwell (speedwell; 250 g ai/ha): 100
